The experiment deals with T1, GST-Plk1 (Homo sapiens, UniProt P53350).
T1 construct: Full-length, active GST-Plk1 was purified from Sf9 insect cells; made in house; host or cells: Sf9 insect cells
T1 sequence (P53350 whole entry): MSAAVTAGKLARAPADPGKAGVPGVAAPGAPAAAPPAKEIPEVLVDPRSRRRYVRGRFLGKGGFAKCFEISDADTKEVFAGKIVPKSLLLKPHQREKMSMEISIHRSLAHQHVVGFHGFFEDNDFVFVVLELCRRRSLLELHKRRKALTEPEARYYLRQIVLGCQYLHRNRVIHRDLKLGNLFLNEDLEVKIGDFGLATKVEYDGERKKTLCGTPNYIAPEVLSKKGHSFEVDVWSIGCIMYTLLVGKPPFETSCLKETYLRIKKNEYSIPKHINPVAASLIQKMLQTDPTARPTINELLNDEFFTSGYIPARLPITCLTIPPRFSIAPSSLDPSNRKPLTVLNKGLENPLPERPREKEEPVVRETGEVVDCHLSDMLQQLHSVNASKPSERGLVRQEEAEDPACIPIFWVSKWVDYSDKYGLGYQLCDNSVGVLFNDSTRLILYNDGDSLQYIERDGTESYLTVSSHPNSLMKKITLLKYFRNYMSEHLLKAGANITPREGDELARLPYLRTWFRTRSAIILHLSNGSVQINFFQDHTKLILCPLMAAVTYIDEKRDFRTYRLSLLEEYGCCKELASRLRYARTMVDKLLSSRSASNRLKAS
In words: Biochemical Characterization Assay: HTRF kinase assay, GST-Plk1 phosphorylation of GST-p53. The note with it: full-length active GST-Plk1, GST-p53 substrate, ATP, 37° C. for 35 minutes, HTRF signal. As for the experimental part:
Full-length, active GST-Plk1 was purified from Sf9 insect cells, and full-length GST-p53 was purified in E. coli. Anti-phospho p53 antibody was purchased from Cell Signaling Technology. Europium-conjugated anti-rabbit antibody was purchased from PerkinElmer Life and Analytical Sciences. APC-conjugated anti-GST antibody was purchased from Prozyme.
To two microliters of compound (0.6 nM-4 mM) in DMSO or plain DMSO for control wells, 38 microliters of 20 mM HEPES pH 7, 50 mM NaCl, 10 mM MgCl2, 0.5 mM TCEP, 0.1 mM sodium orthovanadate, 0.1 mg/ml BSA, and 0.05% Triton X-100 (Kinase Assay Buffer) were added. Eight microliters of the compound solution were added to a 384-well black microtiter plate, followed by six microliters of GST-p53 (17 ug/ml) and ATP (333 uM) in Kinase Assay Buffer. Six microliters of GST-Plk1 (3 ug/ml) in Kinase Assay Buffer were then added and the solution incubated at 37° C. for 35 minutes. Six microliters of solution containing 43 mM EDTA to stop the reaction and a 1:600 dilution of anti-phospho-p53 antibody in 20 mM HEPES pH 7, 50 mM NaCl, and 0.5 mg/ml BSA (Antibody Binding Buffer) were added and the solution incubated at 37° C. for 30 minutes. Six microliters of solution containing 9 nM europium-conjugated anti-rabbit antibody and 120 nM APC-conjugated anti-GST antibody in Antibody Binding Buffer were then added and the mixture incubated at room temperature for 1.5 hours. The HTRF signal was read on the Envision reader (PerkinElmer Life and Analytical Sciences).
For orientation: In TR-FRET formats the signal depends on donor and acceptor labels being close together.
In the case of `COc1ccc(-c2nc(-n3cnc4cc(OC)c(OC)cc43)sc2C(=O)O)cc1OC` [Example 18, 2-(5,6-Dimethoxy-benzoimidazol-1-yl)-4-(3,4-dimethoxy-phenyl)-thiazole-5-carboxylic acid], half-maximal inhibition (IC50) was put at 2390 nM. In other words, the single-digit micromolar range.

Consider “2-(5-Chlorobenzoimidazol-1-yl)-4-phenylthiazole-5-carboxylic acid and 2-(6-chlorobenzoimidazol-1-yl)-4-phenylthiazole-5-carboxylic acid [Example 14]”, for which the IC50 came out at 720 nM. Against the preceding compound, the IC50 is about 3.3-fold lower.

As for `COc1cc2ncn(-c3nc(-c4ccccc4Cl)c(C(=O)O)s3)c2cc1OC` [Example 21, 4-(2-Chloro-phenyl)-2-(5,6-dimethoxy-benzoimidazol-1-yl)-thiazole-5-carboxylic acid], the half-maximal inhibitory concentration (IC50) stood at 3600 nM.

As to `COc1cc2ncn(-c3nc(-c4ccccc4C)c(C(=O)O)s3)c2cc1OC` [Example 27, 2-(5,6-Dimethoxy-benzoimidazol-1-yl)-4-o-tolyl-thiazole-5-carboxylic acid], the IC50 was 1620 nM. Against the preceding compound, the IC50 is about 2.2-fold lower.

`COc1cc2ncn(-c3nc(-c4cccc(CO)c4)c(C(=O)O)s3)c2cc1OC` [Example 49, 2-(5,6-Dimethoxy-benzoimidazol-1-yl)-4-(3-hydroxymethyl-phenyl)-thiazole-5-carboxylic acid]: 1080 nM corresponded to half-maximal inhibition (IC50).

The compound “2-(5-Hydroxy-benzoimidazol-1-yl)-4-phe-nyl-thiazole-5-car-boxylic acid; compoundwith 2-(6-hydroxy-benzoimidazol-1-yl)-4-phenyl-thiazole-5-carboxylic acid [Example 65]” had an IC50 of 388 nM.

For `COc1cc2ncn(-c3nc(-c4cccc(Br)c4)c(C(=O)O)s3)c2cc1OC` [Example 42, 4-(3-Bromo-phenyl)-2-(5,6-dimethoxy-benzoimidazol-1-yl)-thiazole-5-carboxylic acid], half-maximal inhibition (IC50) required 40 nM.

Compound `COc1cc2ncn(-c3nc(-c4cccc(F)c4)c(C(=O)O)s3)c2cc1OC` [Example 17, 2-(5,6-Dimethoxy-benzoimidazol-1-yl)-4-(3-fluoro-phenyl)-thiazole-5-carboxylic acid] yielded an IC50 of 69 nM. This IC50 lies about 1.7-fold higher than the previous one.

The compound `C=Cc1cccc(-c2nc(-n3cnc4cc(OC)c(OC)cc43)sc2C(=O)O)c1` [Example 40, 2-(5,6-Dimethoxy-benzoimidazol-1-yl)-4-(3-vinyl-phenyl)-thiazole-5-carboxylic acid] registered an IC50 of 102 nM. This IC50 and that of the compound before are within 1.5-fold of each other.

Consider `COc1cc2ncn(-c3nc(-c4ccnc(Cl)c4)c(C(=O)O)s3)c2cc1OC` [Example 64, 4-(2-Chloro-pyridin-4-yl)-2-(5,6-dimethoxy-benzoimidazol-1-yl)-thiazole-5-carboxylic acid], for which it took 75 nM to reach half-maximal inhibition (IC50).

Compound `O=C(O)c1sc(-n2cnc3cc(O)c(O)cc32)nc1-c1ccccc1` [Example 39, 2-(5,6-Dihydroxybenzoimidazol-1-yl)-4-phenyl-thiazole-5-carboxylic acid] displayed an IC50 of 2020 nM.

Take `COc1cc2ncn(-c3nc(-c4ccc5c(ccn5C)c4)c(C(=O)O)s3)c2cc1OC` [Example 46, 2-(5,6-Dimethoxy-benzoimidazol-1-yl)-4-(1-methyl-1H-indol-5-yl)-thiazole-5-carboxylic acid]: inhibition was half-maximal at 368 nM (IC50). Against the preceding compound, the IC50 is about 5.5-fold lower.

With `C=Cc1ccc(-c2nc(-n3cnc4cc(OC)c(OC)cc43)sc2C(=O)O)cc1` [Example 51, 2-(5,6-Dimethoxy-benzoimidazol-1-yl)-4-(4-vinyl-phenyl)-thiazole-5-carboxylic acid], inhibition was half-maximal at 2670 nM (IC50).

`COc1ccc2c(c1)ncn2-c1nc(-c2ccccc2)c(C(=O)O)s1` [Example 62, 2-(5-Methoxy-benzoimidazol-1-yl)-4-phe-nyl-thiazole-5-car-boxylic acid]: inhibition was half-maximal at 261 nM (IC50).

`COc1cc2ncn(-c3nc(-c4cccc(F)c4F)c(C(=O)O)s3)c2cc1OC` [Example 29, 4-(2,3-Difluoro-phenyl)-2-(5,6-dimethoxy-benzoimidazol-1-yl)-thiazole-5-carboxylic acid] registered an IC50 of 538 nM.

“2-(5-Methylbenzoimidazol-1-yl)-4-phenylthiazole-5-carboxylic acid and 2-(6-Methylbenzoimidazol-1-yl)-4-phenylthiazole-5-carboxylic acid [Example 4]” gave a half-inhibitory concentration (IC50) of 1550 nM. Against the preceding compound, the IC50 is about 2.9-fold higher.

On to `Cc1cc2ncn(-c3nc(-c4ccccc4)c(C(=O)O)s3)c2cc1C` [Example 5, 2-(5,6-Dimethylbenzoimidazol-1-yl)-4-phenylthiazole-5-carboxylic acid], for which the IC50 is 2490 nM.

`COc1cc2ncn(-c3nc(-c4cccc(C(F)(F)F)c4)c(C(=O)O)s3)c2cc1OC` [Example 43, 2-(5,6-Dimethoxy-benzoimidazol-1-yl)-4-(3-trifluoromethyl-phenyl)-thiazole-5-carboxylic acid] returned an IC50 of 157 nM. This IC50 is about 16-fold lower than that of the compound before.

`COc1cc2ncn(-c3nc(-c4cccc(O)c4)c(C(=O)O)s3)c2cc1OC` [Example 34, 2-(5,6-Dimethoxy-benzoimidazol-1-yl)-4-(3-hydroxy-phenyl)-thiazole-5-carboxylic acid] returned an IC50 of 211 nM. This IC50 and that of the compound before are within 1.5-fold of each other.

On to `COc1cc2ncn(-c3nc(-c4ccsc4)c(C(=O)O)s3)c2cc1OC` [Example 25, 2-(5,6-Dimethoxy-benzoimidazol-1-yl)-4-thiophen-3-yl-thiazole-5-carboxylic acid], for which the IC50 turned out to be 781 nM. This IC50 is about 3.7-fold higher than that of the compound before.

`COc1cc2ncn(-c3nc(-c4cccc(Cl)c4)c(C(=O)O)s3)c2cc1OC` [Example 31, 4-(3-Chloro-phenyl)-2-(5,6-dimethoxy-benzoimidazol-1-yl)-thiazole-5-carboxylic acid] had an IC50 of 25 nM.

Take “2-(4-Hydroxy-benzoimidazol-1-yl)-4-phenyl-thiazole-5-carboxylic acid and 2-(7-hydroxy-benzoimidazol-1-yl)-4-phenyl-thiazole-5-carboxylic acid [Example 7]”: half-maximal inhibition (IC50) was put at 7470 nM. Against the preceding compound, the IC50 is about 300-fold higher.

The compound `COc1cc2ncn(-c3nc(-c4ccc5c(c4)OCO5)c(C(=O)O)s3)c2cc1OC` [Example 22, 4-Benzo[1,3]dioxol-5-yl-2-(5,6-dimethoxy-benzoimidazol-1-yl)-thiazole-5-carboxylic acid] returned an IC50 of 125 nM. This IC50 is about 60-fold lower than that of the compound before.

“1-(5-Carboxy-4-phenyl-thiazol-2-yl)-1H-benzoimidazole-4-carboxylic acid and 3-(5-carboxy-4-phenyl-thiazol-2-yl)-3H-benzoimidazole-4-carboxylic acid [Example 8]”: the IC50 is 6420 nM.

“2-(5-Chloro-6-fluoro-benzoimidazol-1-yl)-4-phenyl-thiazole-5-carboxylic acid and 2-(6-chloro-5-fluoro-benzoimidazol-1-yl)-4-phenyl-thiazole-5-carboxylic acid [Example 35]” showed an IC50 of 1290 nM. Compared with the last compound, the IC50 is about 5-fold lower.

Turning to `COc1cc2ncn(-c3nc(-c4ccccc4)c(C(=O)O)s3)c2cc1OC` [Example 1, 2-(5,6-Dimethoxybenzoimidazol-1-yl)-4-phenylthiazole-5-carboxylic acid], half-maximal inhibition (IC50) required 107 nM.

Regarding `COc1cc2ncn(-c3nc(-c4cccc(Cl)c4)c(C(=O)Nc4ccncn4)s3)c2cc1OC` [Example 54, 4-(3-Chloro-phenyl)-2-(5,6-dimethoxy-benzoimidazol-1-yl)-thiazole-5-carboxylic acid pyrimidin-4-ylamide], half-maximal inhibition (IC50) was put at 47 nM. Against the preceding compound, the IC50 is about 2.3-fold lower.

`NC(=O)c1sc(-n2cnc3ccccc32)nc1-c1ccccc1` [Example 3, 2-Benzoimidazol-1-yl-4-phenyl-thiazole-5-carboxylic acid amide] returned an IC50 of 7360 nM.

In the case of `COc1cc2ncn(-c3nc(-c4cccc5ccccc45)c(C(=O)O)s3)c2cc1OC` [Example 32, 2-(5,6-Dimethoxy-benzoimidazol-1-yl)-4-naphthalen-1-yl-thiazole-5-carboxylic acid], inhibition was half-maximal at 3180 nM (IC50).

In turn, `COc1cc2ncn(-c3nc(-c4cccc(Cl)c4)c(C(=O)NNC(=O)c4cccc(C)c4)s3)c2cc1OC` [Example 58, 3-Methyl-benzoic acid N′-[4-(3-chloro-phenyl)-2-(5,6-dimethoxy-benzoimidazol-1-yl)-thiazole-5-carbonyl]-hydrazide] displayed an IC50 of 586 nM.

In the case of `COc1cc2ncn(-c3nc(-c4ccccc4)c(C(=O)N(C)C)s3)c2cc1OC` [Example 10, 2-(5,6-Dimethoxy-benzoimidazol-1-yl)-4-phenyl-thiazole-5-carboxylic acid dimethylamide], the IC50 was found to be 1380 nM.

Broadly, the IC50 is the concentration needed to halve the response being measured. A higher IC50 goes with a need for much substance.

The values above are taken from US7504513B2, “Thiazolyl-benzimidazoles” (Hoffman-La Roche Inc., priority 2006, dated 2009).
